Our source for the koff values is patent US20180172683A1, “METHODS FOR ANALYZING THE INTERACTION BETWEEN A TARGET PROTEIN AND A LIGAND” (UNIVERSITY OF SOUTHERN CALIFORNIA, priority 2015, published 2018).

Peptide text beside a SMILES is read from it. * marks the point of attachment. Biotin = O=C1N[C@H]2[C@H](CS[C@H]2CCCCC(=O)*)N1

Experiment [1] addresses T1, Bcl-xL (Homo sapiens, UniProt Q07817).
T1 construct: The gene for the first 209 amino acids of Bcl-xL; made in house; host or cells: E. coli BL21(DE3), pET24a vector
In words: High-throughput sequencing kinetic (HTSK) on- and off-rates of mRNA-peptide fusions. The conditions noted are these: mRNA-peptide fusions, next-generation sequencing. It is filed as binding. On the procedure:
Preparing the pools of fusion ligands. The DNAs for the final enriched pools from the extension and the doped selection against Bcl-xL were generated. The DNA pools were PCR amplified using Taq polymerase and in vitro transcribed into mRNA using T7 RNA polymerase (Liu et al., Methods Enzymol. 318, 268-293 (2000)). After transcription, the mRNA was urea-PAGE purified and resuspended in deionized water to a final concentration of 30 μM. The mRNA was then ligated to fluorescein-F30P (phosphate-dA21-[dT-fluor]-[C9]3-dAdCdCP; where [dT-fluor] is fluorescein dT (Glen Research), [C9] is spacer 9 (Glen Research), and P is puromycin (Glen Research); synthesized at the Keck Oligo Facility at Yale) using T4 DNA ligase (Takahashi et al., Methods Mol. Biol. 535, 293-314 (2009)). The ligation was performed using a splint complementary to the 3′ end of the RNA and the 5′ end of the DNA-linker. The ligated mRNA was urea-PAGE purified and resuspended in deionized water to final concentration of 30 μM. The samples were in vitro translated in the translation solution-150 mM KOAc, 750 μM MgCl2, 2 μM mRNA, in 1× translation mix (20 mM Hepes-KOH pH 7.6, 100 mM creatine phosphate, 2 mM DTT, and 312.5 μM of each amino acid) and 60% (v/v) rabbit reticulocyte lysate. To prepare radiolabeled peptides or proteins, non-labeled methionine was substituted with ^35S-labeled methionine (Perkin Elmer; 20 μCi for each 25 μL of translation). The translation reactions were incubated at 30° C. for one hour. To form mRNA-protein fusions, KCl and MgCl2 were added to the reaction to final concentrations of 250 mM and 30 mM respectively after translation, and the samples were frozen at −20° C.
To purify the fusion molecules, 100 μL of dT cellulose (25% (v/v) slurry, GE Healthcare) in isolation buffer (100 mM Tris-HCl pH 8.0, 1 M NaCl, 0.2% (v/v) Triton X-100) was added and incubated for 1 hour. The beads were washed five times with 700 μL of isolation buffer, and the fusions were eluted with 3×80 μL of 65° C. water and desalted through Centrisep columns (Princeton Separations). The desalted fusions were adjusted to 1×RT buffer (50 mM Tris-HCl pH 8.3, 75 mM KCl, 3 mM MgCl2, […], […],) and the sample was heated to 65° C. for 5 minutes and cooled on ice to anneal the 3′ primer. After cooling, […] of Superscript II enzyme was added and the reaction incubated at 42° C. for one hour. […]
On- and off-rate experiments. […] The radiolabeled samples were washed 3×, and the beads were counted via a scintillation counter.
To obtain the HTSK off-rates, after the kinetic on-rate experiment, the remaining beads were washed 5× with selection buffer. […] The radiolabeled samples were washed and counted via a scintillation counter. […]

For experiment [2], the target named is T1, Bcl-xL. The experiment is described as follows: Radiolabeled off-rate assay on immobilized Bcl-xL. It is filed as binding. The source says: Radiolabeled Off-Rate Assay. The DNA sequences coding for the peptides were ordered from Integrated DNA Technologies (IDT). Each DNA construct contained a T7 RNA Polymerase promoter, and a 5′ deletion mutant of the Tobacco Mosaic Virus (ΔTMV). The C-terminal portion of the peptides were elongated with a flexible serine-glycine linker (six amino acids long) and an HA tag. After gel purification using urea-PAGE, the DNA sequences were PCR amplified using Taq polymerase and in vitro transcribed into mRNA using T7 RNA polymerase. After transcription, the mRNA was urea-PAGE purified and resuspended in deionized water to a final concentration of 30 μM.
The samples were in vitro translated at 30° C. for 1 hour in the translation solution—150 mM KOAc, 750 μM MgCl2, 2 μM mRNA, 1× translation mix (20 mM Hepes-KOH pH 7.6, 100 mM creatine phosphate, 2 mM DTT, and 312.5 μM of each amino acid excluding methionine), ^35S-labeled methionine (Perkin Elmer; 20 μCi for each 25 μL of translation), and 60% (v/v) rabbit reticulocyte lysate. Radiolabeled peptides were purified using magnetic HA beads (Life Technologies) and eluted with 100 μL, 50 mM NaOH, then immediately neutralized with 20 μL of 1 M Tris-HCl, pH 8.0.
The radiolabeled peptides were allowed to bind to 30 pmol immobilized Bcl-xL for 1 hour in sample buffer (1×PBS, 1% (w/v) BSA, 0.1% (v/v) Tween 20, 10 μM biotin). The beads were magnetically separated, and washed 5× with sample buffer. The beads were resuspended in 1 mL of sample buffer containing 3 μM non-biotinylated Bcl-xL (˜100× molar excess relative to immobilized biotinylated Bcl-xL). At various time points, 100 μL of slurry was removed and the beads were magnetically separated and washed. The percent remaining at each time point was determined by dividing the counts per minute (cpm) on beads by total cpm (beads+washes). The peptide off-rate was determined by an exponential fit of the Percent counts on beads vs. Time (s).
The peptide ligands were made using a C-terminal HA tag, and affinity purified.

Where [3] appears, read: in vitro translated radiolabeled peptides with C-terminal HA tag, read-out: Peptide koff.
The mark [4] stands for this setting: radiolabeled peptide-mRNA fusions bound to immobilized Bcl-xL, read-out: koff.

T1 sequence (Q07817 1-209 limits assumed): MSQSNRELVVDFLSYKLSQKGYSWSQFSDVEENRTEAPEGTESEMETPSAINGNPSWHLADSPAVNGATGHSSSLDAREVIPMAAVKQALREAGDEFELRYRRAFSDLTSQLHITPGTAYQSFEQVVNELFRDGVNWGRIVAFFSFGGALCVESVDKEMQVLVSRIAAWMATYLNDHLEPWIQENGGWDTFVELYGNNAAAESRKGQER

The koff is a measure of how fast the partners let go of each other. Consider `CC[C@H](C)[C@H](NC(=O)[C@H](C)NC(=O)[C@@H](NC(=O)[C@@H](N)CCSC)[C@@H](C)CC)C(=O)N[C@@H](CO)C(=O)N[C@H](C(=O)N[C@H](C(=O)N[C@@H](Cc1ccc(O)cc1)C(=O)N[C@@H](CC(N)=O)C(=O)N[C@@H](Cc1ccc(O)cc1)C(=O)N[C@@H](CCCCN)C(=O)N[C@@H](CCCCN)C(=O)N[C@@H](C)C(=O)N[C@@H](C)C(=O)N[C@@H](CC(=O)O)C(=O)N[C@@H](Cc1c[nH]cn1)C(=O)N[C@@H](Cc1ccc(O)cc1)C(=O)N[C@@H](C)C(=O)N[C@@H](CCSC)C(=O)N[C@H](C(=O)N[C@@H](CCCCN)C(=O)NCC(=O)N[C@@H](CO)C(=O)N[C@@H](CCCCNC(=O)CCCC[C@@H]1SC[C@@H]2NC(=O)N[C@@H]21)C(N)=O)[C@@H](C)O)[C@@H](C)CC)[C@@H](C)O` [D1] (H-MIAISTIYNYKKAADHYAMTKGSK(Biotin)-NH2), for which the koff worked out at 1e-06 s⁻¹ in experiment [1], 2e-06 s⁻¹ in experiment [2] (setting [3]) and 2e-06 s⁻¹ in experiment [2] (setting [4]).
With `CC[C@H](C)[C@H](NC(=O)[C@@H](NC(=O)[C@@H](NC(=O)[C@@H](NC(=O)[C@H](CCC(=O)O)NC(=O)[C@@H](NC(=O)[C@@H](N)CCSC)[C@@H](C)CC)[C@@H](C)O)[C@@H](C)CC)[C@@H](C)O)C(=O)N[C@@H](Cc1ccc(O)cc1)C(=O)N[C@@H](CC(N)=O)C(=O)N[C@@H](Cc1ccc(O)cc1)C(=O)N[C@@H](CCCCN)C(=O)N[C@@H](CCCCN)C(=O)N[C@@H](C)C(=O)N[C@@H](C)C(=O)N[C@@H](CC(=O)O)C(=O)N[C@@H](Cc1c[nH]cn1)C(=O)N[C@@H](Cc1ccccc1)C(=O)N[C@@H](CO)C(=O)N[C@@H](CCSC)C(=O)N[C@@H](CO)C(=O)N[C@@H](CCSC)C(=O)NCC(=O)N[C@@H](CO)C(=O)N[C@@H](CCCCNC(=O)CCCC[C@@H]1SC[C@@H]2NC(=O)N[C@@H]21)C(N)=O` [E1] (H-MIETITIYNYKKAADHFSMSMGSK(Biotin)-NH2), the koff was determined as 2.5e-06 s⁻¹ in experiment [1], 7.4e-06 s⁻¹ in experiment [2] (setting [3]) and 1.2e-05 s⁻¹ in experiment [2] (setting [4]).
